Test system: LXRα and/or LXRβ
Experiment: Co-transfection assay (LXRE luciferase reporter, CV-1 cells)
Format: cell-based, human
Settings: tested as described in Example 33; IC50 or EC50 for LXRα and/or LXRβ, isoform not specified; read-out: activity (IC50 or EC50 for LXR)
From the text: To measure the ability of compounds to activate or inhibit the transcriptional activity of LXR in a cell based assay, the co-transfection assay was used. It has been shown that LXR functions as a heterodimer with RXR. For the co-transfection assay, expression plasmids for LXR and RXR are introduced via transient transfection into mammalian cells along with a luciferase reporter plasmid that contains one copy of a DNA sequence that is bound by LXR-RXR heterodimers (LXRE; Willy, P. et. al. 1995). Treatment of transfected cells with an LXR agonist increases the transcriptional activity of LXR, which is measured by an increase in luciferase activity.
CV-1 African Green Monkey Kidney Cells Co-transfection expression plasmids, comprising full-length LXRα (pCMX-h LXRα, LXRβ (pCMX-hLXRβ), or RXRα (pCMX-RXR), reporter plasmid (LXREx1-Tk-Luciferase), and control (pCMX-Galactosidase expression vector) (Willey et al. Genes & Development 9 1033-1045 (1995)). Transfection reagent such as FuGENE6 (Roche). 1× Cell lysis buffer (1% Triton X 100 (J T Baker X200-07), 10% Glycerol (J T Baker M778-07), 5 mM Ditriotreitol (Quantum Bioprobe DTT03; add fresh before lysing), 1 mM EGTA (Ethylene Glycol-bis(B-Amino ethyl ether)-N,N,N′,N′-Tetracetic Acid) (Sigma E-4378), 25 mM Tricine (ICN 807420) pH 7.8) 1× Luciferase assay buffer (pH at 7.8) (0.73 mM ATP, 22.3 mM Tricine, 0.11 mM EDTA, 33.3 mM DTT) 1× Luciferrin/CoA (11 mM Luciferin, 3.05 mM Coenzyme A, 10 mM HEPES)
CV-1 cells were prepared 24 hours prior to the experiment by plating them into T-175 flasks or 500 cm^2 dishes in order to achieve 70-80% confluency on the day of the transfection. The number of cells to be transfected was determined by the number of plates to be screened. Each 384 well plate requires 1.92×10^6 cells or 5000 cells per well. DNA Transfection Reagent was prepared by mixing the required plasmid DNAs with a cationic lipid transfection reagent FuGENE6 (Roche) by following the instructions provided with the reagents. Optimal DNA amounts were determined empirically per cell line and size of vessel to be transfected. 10-12 mL of media was added to the DNA Transfection Reagent and this mixture was added to the cells after aspirating media from the T175 cm^2 flask. Cells were then incubated at least 5 hours at 37° C. to prepare screening cells.
Luciferase assay reagent was prepared by combining before use (per 10 mL): 10 mL 1× Luciferase assay buffer; 0.54 mL of 1× Luciferrin/CoA; 0.54 mL of 0.2 M Magnesium sulfate
Assay plates were prepared by dispensing 5 μL, of compound per well of a 384 well plate to achieve final compound concentration of 10 μM and no more than 1% DMSO. Media was removed from the screening cells, the cells trypsinized, harvested cells by centrifugation, counted, and plated at a density of approximately 5000 cells per well in the 384 well assay plate prepared above in a volume of about 45 μL. Assay plates containing both compounds and screening cells (50 μL in total volume) were incubated for 20 hours at 37° C.
After incubation with compounds, media was removed from the cells and lysis buffer (30 μL/well) added. After 30 minutes at ambient temperature, luciferase assay buffer (30 μL/well) was added and the assay plates read on a luminometer (PE Biosystems Northstar reader with on-board injectors, or equivalent). Plates were read immediately after addition of luciferase assay buffer.
The LXR/LNRE co-transfection assay can be used to establish the EC50/IC50 values for potency and percent activity or inhibition for efficacy. Efficacy defines the activity of a compound relative to a high control ((N-(3-((4-fluorophenyl)-(naphthalene-2-sulfonyl)amino)propyl)-2,2-dimethylpropionamide)) or a low control (DMSO/vehicle). The dose response curves are generated from an 8 point curve with concentrations differing by ½ LOG units. Each point represents the average of 4 wells of data from a 384 well plate. […]

| IC50 or EC50 (potency, activation or inhibition) [nM] | SMILES |
| --- | --- |
| > 10000 | CS(=O)(=O)c1cccc(-c2ccc(-n3cc(C(=O)NCC(=O)O)nc3-c3c(Cl)cccc3Cl)c(Cl)c2)c1 [Example 461, 2-(1-(3-chloro-3′-(methyl-sulfonyl)biphenyl-4-yl)-2-(2,6-dichlorophenyl)-1H-imidazole-4-carboxamido)acetic acid] |
| < 1000 | CNS(=O)(=O)c1cccc(-c2ccc(-n3cc(C(C)(C)O)nc3-c3c(Cl)cccc3Cl)cc2)c1 [Example 108, 4′-(2-(2,6-dichlorophenyl)-4-(2-hydroxypropan-2-yl)-1H-imidazol-1-yl)-N-methylbiphenyl-3-sulfonamide] |
| < 1000 | CCS(=O)(=O)c1cccc(-c2ccc(-n3cc(C(C)(C)O)nc3-c3ccccc3C(C)C)cc2)c1 [Example 96, 2-(1-(3′-(ethylsulfonyl)biphenyl-4-yl)-2-(2-isopropylphenyl)-1H-imidazol-4-yl)propan-2-ol] |
| < 1000 | CC(C)(O)c1cn(-c2ccc(-c3cccc(S(C)(=O)=O)c3)cc2Cl)c(-c2c(Cl)cccc2Cl)n1 [Example 142, 2-(1-(3-chloro-3′-(methyl-sulfonyl)biphenyl-4-yl)-2-(2,6-dichlorophenyl)-1H-imidazol-4-yl)propan-2-ol] |
| 1000 to 10000 | CC(C)(O)c1cn(-c2ccc(-c3cccc(S(C)(=O)=O)c3)cc2)c(-c2c(Cl)cccc2-c2cccc(S(C)(=O)=O)c2)n1 [Example 458, 2-(2-(3-chloro-3′-(methyl-sulfonyl)biphenyl-2-yl)-1-(3′-(methylsulfonyl)biphenyl-4-yl)-1H-imidazol-4-yl)propan-2-ol] |
| < 1000 | CC(=O)c1cn(-c2ccc(-c3cccc(S(C)(=O)=O)c3)cc2)c(-c2c(Cl)cccc2Cl)n1 [Example 69, 1-(2-(2,6-dichlorophenyl)-1-(3′-(methylsulfonyl)biphenyl-4-yl)-1H-imidazol-4-yl)ethanone] |
| < 1000 | C/C(=N\O)c1cn(-c2ccc(-c3cccc(S(C)(=O)=O)c3)cc2)c(-c2ccccc2C(F)(F)F)n1 [Example 412, 1-{1-[3′-(methylsulfonyl)biphenyl-4-yl]-2-[2-(trifluoromethyl)phenyl]-1H-imidazol-4-yl}ethanone oxime] |
| < 1000 | CC(C)(O)c1nc(-c2ccccc2C(F)(F)F)n(-c2ccc(-c3cccc(S(C)(=O)=O)c3)cc2)c1F [Example 406, 2-{5-fluoro-1-[3′-(methyl-sulfonyl)biphenyl-4-yl]-2-[2-(trifluoro-methyl)phenyl]-1H-imidazol-4-yl}propan-2-ol] |
| < 1000 | CCS(=O)(=O)c1cccc(-c2ccc(-n3cc(C(C)(C)O)nc3-c3c(C)cccc3Cl)c(F)c2)c1 [Example 129] |
| 1000 to 10000 | CC(C)(O)c1cn(-c2ccc(-c3cccc(S(C)(=O)=O)c3)nc2)c(-c2ccccc2C(F)(F)F)n1 [Example 421, 2-(1-{6-[3-(methyl-sulfonyl)phenyl]pyridin-3-yl}-2-[2-(trifluoromethyl)phenyl]-1H-imidazol-4-yl)propan-2-ol] |
| < 1000 | Cc1cc(-c2cccc(S(C)(=O)=O)c2)ccc1-n1cc(C(C)(C)O)nc1-c1c(F)cccc1F [Example 193, 2-(2-(2,6-difluorophenyl)-1-(3-methyl-3′-(methylsulfonyl)biphenyl-4-yl)-1H-imidazol-4-yl)propan-2-ol] |
| < 1000 | CC(C)(O)c1cn(-c2ccc(-c3ccc(CO)c(S(C)(=O)=O)c3)cc2)c(-c2ccccc2C(F)(F)F)n1 [Example 400, 2-{1-[4′-(hydroxymethyl)-3′-(methylsulfonyl)biphenyl-4-yl]-2-[2-(trifluoromethyl)phenyl]-1H-imidazol-4-yl}propan-2-ol] |
| < 1000 | CC(C)(O)c1cn(-c2ccc(-c3ccc(CO)c(S(C)(=O)=O)c3)cc2Cl)c(-c2cccc(Cl)c2Cl)n1 [Example 148, 2-(1-(3-chloro-4′-(hydroxymethyl)-3′-(methylsulfonyl)biphenyl-4-yl)-2-(2,3-dichlorophenyl)-1H-imidazol-4-yl)propan-2-ol] |
| < 1000 | CC(C)(O)c1cn(-c2cccc(-c3ccc(S(C)(=O)=O)cc3)c2)c(-c2ccccc2C(F)(F)F)n1 [Example 407, 2-{1-[4′-(methylsulfonyl)biphenyl-3-yl]-2-[2-(trifluoromethyl)phenyl]-1H-imidazol-4-yl}propan-2-ol] |
| < 1000 | CCS(=O)(=O)c1cccc(-c2ccc(-n3cc(C(C)(C)O)nc3Cc3c(F)cccc3Cl)cc2)c1 [Example 10, 2-(2-(2-chloro-6-fluorobenzyl)-1-(3′-(ethylsulfonyl)biphenyl-4-yl)-1H-imidazol-4-yl)propan-2-ol] |
| < 1000 | Cc1cc(-c2cccc(S(C)(=O)=O)c2)ccc1-n1cc(C(C)(C)O)nc1-c1c(Cl)cccc1Cl [Example 181, 2-(2-(2,6-dichlorophenyl)-1-(3-methyl-3′-(methylsulfonyl)biphenyl-4-yl)-1H-imidazol-4-yl)propan-2-ol] |
| < 1000 | CCOC(=O)c1cn(-c2ccc(-c3cccc(S(C)(=O)=O)c3)cc2)c(-c2ccccc2C(F)(F)F)n1 [Example 367] |
| < 1000 | CCS(=O)(=O)c1cccc(-c2ccc(-n3cc(C(=O)NCC(C)(C)O)nc3-c3c(Cl)cccc3Cl)c(Cl)c2)c1 [Example 473, 1-(3-chloro-3′-(ethylsulfonyl)biphenyl-4-yl)-2-(2,6-dichlorophenyl)-N-(2-hydroxy-2-methylpropyl)-1H-imidazole-4-carboxamide] |
| < 1000 | CC(C)(O)c1cn(-c2ccc(-c3ccc(C(C)(C)O)c(S(C)(=O)=O)c3)cc2)c(-c2cccc(Cl)c2Cl)n1 [Example 105, 2-(2-(2,3-dichlorophenyl)-1-(4′-(2-hydroxypropan-2-yl)-3′-(methylsulfonyl)biphenyl-4-yl)-1H-imidazol-4-yl)propan-2-ol] |
| < 1000 | Cc1cc(-c2ccc(CO)c(S(C)(=O)=O)c2)ccc1-n1cc(C(C)(C)O)nc1-c1cccc(Cl)c1Cl [Example 176, 2-(2-(2,3-dichlorophenyl)-1-(4′-(hydroxymethyl)-3-methyl-3′-(methylsulfonyl)biphenyl-4-yl)-1H-imidazol-4-yl)propan-2-ol] |
| < 1000 | CCS(=O)(=O)c1cccc(-c2ccc(-n3cc(C(C)(C)O)nc3-c3c(Cl)cccc3Cl)c(Cl)c2)c1 [Example 150, 2-(1-(3-chloro-3′-(ethyl-sulfonyl)biphenyl-4-yl)-2-(2,6-dichlorophenyl)-1H-imidazol-4-yl)propan-2-ol] |
| < 1000 | Cc1cc(-c2ccc(CO)c(S(C)(=O)=O)c2)ccc1-n1cc(C(C)(C)O)nc1-c1cccc(F)c1Cl [Example 173, 2-(2-(2-chloro-3-fluorophenyl)-1-(4′-(hydroxymethyl)-3-methyl-3′-(methylsulfonyl)biphenyl-4-yl)-1H-imidazol-4-yl)propan-2-ol] |
| 1000 to 10000 | CC(C)(O)c1cn(-c2ccc(-c3ccc(C(C)(C)O)c(S(C)(=O)=O)c3)cc2Cl)c(-c2c(F)cccc2Cl)n1 [Example 164, 2-(3′-chloro-4′-(2-(2-chloro-6-fluorophenyl)-4-(2-hydroxypropan-2-yl)-1H-imidazol-1-yl)-3-(methyl-sulfonyl)biphenyl-4-yl)propan-2-ol] |

From patent publication US9000022B2 (Exelixis Patent Company LLC, priority 2005, dated 2015)
